In US7629150B2, “Transformed cell harboring DNA or RNA encoding sugar chain synthesizing agent having β1,3-N-acetylglucosaminyltransferase activity” (Kyowa Hakko Kirin Co., Ltd., priority 2000, dated 2009):

How the values were obtained:
Type in all cases: biochemical
[1] = target: T1, G6sec1 (Homo sapiens, UniProt Q9BYG0); assay: β1,3-N-acetylglucosaminyltransferase activity of purified FLAG peptide-fused G6 polypeptide, 2-aminobenzamide-labeled oligosaccharide substrates; conditions: 2-aminobenzamide-labeled oligosaccharides; LNnT defined as 100%
T1 construct: made in house; host or cells: Sf21 insect cells infected with pVL1393-F2G6sec1-derived recombinant baculovirus
T1 sequence (Q9BYG0 36-378): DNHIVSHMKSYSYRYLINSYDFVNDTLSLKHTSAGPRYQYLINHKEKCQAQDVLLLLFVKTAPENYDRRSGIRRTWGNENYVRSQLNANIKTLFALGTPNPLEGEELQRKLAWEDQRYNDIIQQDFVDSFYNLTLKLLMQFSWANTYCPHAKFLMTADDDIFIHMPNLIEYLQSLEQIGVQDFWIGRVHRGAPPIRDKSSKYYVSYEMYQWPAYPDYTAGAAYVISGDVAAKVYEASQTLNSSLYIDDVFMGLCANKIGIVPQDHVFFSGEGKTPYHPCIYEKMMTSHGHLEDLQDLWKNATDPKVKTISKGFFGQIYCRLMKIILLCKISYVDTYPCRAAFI
Experimental: (§1) β1,3-N-Acetylglucosaminyltransferase activity of the FLAG peptide-fused G6 polypeptide secreted and produced in insect cells was measured by using the eluate prepared in Example 8(6). The method of Example 7 was used for the activity measurement.
(§2) As substrates, oligosaccharides [LNnT, Galβ1-4GlcNAcβ1-3Galβ1-4GlcNAc (hereinafter referred to as “2LN”), Galβ1-4GlcNAcβ1-3Galβ1-4GlcNAcβ1-3Galβ1-4GlcNAc (hereinafter referred to as “3LN”), Galβ1-4GlcNAcβ1-3Galβ1-4GlcNAcβ1-3Galβ1-4GlcNAcβ1-3Galβ1-4GlcNAc (hereinafter referred to as “4LN”), Galβ1-4GlcNAcβ1-3Galβ1-4GlcNAcβ-3Galβ1-4GlcNAcβ1-3Galβ1-4GlcNAcβ1-3Galβ1-4GlcNAc (hereinafter referred to as “5LN”), or Galβ1-4(SO3-6)GlcNAcβ1-3Galβ1-4(SO3-6)GlcNAc (hereinafter referred to as “L2L2”)] were labeled with 2-aminobenzamide and used. 2-Aminobenzamide-labeling of oligosaccharides was carried out using SIGMA 2AB glycan labeling kit (manufactured by Oxford Glycoscience) according to the manufacture's instructions of the kit. LNnT was purchased from Oxford Glycosystems. Other oligosaccharides were obtained from Seikagaku Corporation.
Specifically, the reaction was carried out at 37° C. for 16 hours in 20 μl of an assay solution [150 mmol/l sodium cacodylate (pH 7.2), 50 mmol/l UDP-GlcNAc (manufactured by SIGMA), 0.4% Triton CF-54, 10 mmol/l MnCl2, 5 μmol/12-aminobenzamide-labeled sugar chain substrate, the above purified enzyme solution], and then the product was detected by high performance liquid chromatography (HPLC, details will be described below). […]
(§3) The assay solution after completion of the reaction was treated at 100° C. for 5 minutes and then mixed with 50 μl of pure water for HPLC and centrifuged at 10,000×g for 5 minutes to obtain the supernatant. To a tube containing the assay solution, 50 μl of pure water for HPLC was added again, the tube was washed, and suparnatant was obtained by centrifugation at 10,000×g for 5 minutes and was combined with the first supernatant. Next, the supernatant was passed through Ultrafree-MC column (manufactured by Millipore) and a portion thereof (10 μl) was subjected to HPLC. The Ultrafree-MC column was used according to the method described in the manufacture's instructions attached thereto.
(§4) The HPLC was carried out using TSK-gel ODS-80Ts Column (4.6×300 mm; manufactured by TOSOH) as a column and 0.02 mol/l ammonium acetate buffer containing 7% methanol (pH 4.0) as an eluant at an elution temperature of 50° C. and a flow rate of 1 ml/min.
(§5) The product was detected using a fluorescence spectrophotometer FP-920 (manufactured by JASCO Corporation) (excitation wavelength: 330 nm, radiation wavelength: 420 nm).

[2] = target: T2, G6sec2 (Homo sapiens, UniProt Q9BYG0); assay: as above; conditions: 2-aminobenzamide-labeled oligosaccharides, LNnT defined as 100%; for Relative activity (%) Test 2 G6sec2: enzyme prepared again
T2 construct: made in house; host or cells: Sf21 insect cells infected with pVL1393-F2G6sec2-derived recombinant baculovirus
T2 sequence (Q9BYG0 39-378): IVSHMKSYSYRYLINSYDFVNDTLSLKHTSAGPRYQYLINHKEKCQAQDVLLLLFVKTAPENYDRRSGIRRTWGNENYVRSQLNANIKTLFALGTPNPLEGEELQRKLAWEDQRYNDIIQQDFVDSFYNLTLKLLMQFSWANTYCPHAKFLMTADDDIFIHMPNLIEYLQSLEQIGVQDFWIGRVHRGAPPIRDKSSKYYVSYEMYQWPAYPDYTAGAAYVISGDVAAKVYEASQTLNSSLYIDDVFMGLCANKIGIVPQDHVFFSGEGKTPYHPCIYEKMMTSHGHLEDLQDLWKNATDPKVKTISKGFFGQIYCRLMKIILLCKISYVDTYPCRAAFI
Experimental: as §1, §2
Specifically, the reaction was carried out at 37° C. for 16 hours in 20 μl of an assay solution [150 mmol/l sodium cacodylate (pH 7.2), 50 mmol/l UDP-GlcNAc (manufactured by SIGMA), 0.4% Triton CF-54, 10 mmol/l MnCl2, 5 μmol/12-aminobenzamide-labeled sugar chain substrate, the above purified enzyme solution], and then the product was detected by high performance liquid chromatography (HPLC, details will be described below). As the enzyme, an eluate (1.5 μl) prepared from a culture supernatant of Sf21 infected with the recombinant virus derived from pVL1393-F2G6sec1 or an eluate (1.4 μl) prepared from a culture supernatant of Sf21 infected with the recombinant virus derived from pVL1393-F2G6sec2, prepared in Example 8(6), was used.
as §3, §4, §5
Also, a purified enzyme (G6sec2) was again prepared using the method shown in Example 8(6), its substrate specificity was again examined, and the results are also shown in Table 1 (Test 2 in Table 1). The purified enzyme (280 μl) was prepared from 30 ml of a culture supernatant of Sf21 infected with the recombinant virus derived from pVL1393-F2G6sec2, and the assay was carried out using a 4 μl portion thereof. Relative activities when the activity measured using 2-aminobenzamide-labeled LNnT as the substrate is defined as 100% are shown in the table.

[3] = target: T2, G6sec2; assay: β1,3-N-acetylglucosaminyltransferase activity using glycolipids as substrates (purified enzyme); conditions: glycolipid substrate; purified G6sec2
Experimental: Using glycolipids as the substrate, β1,3-N-acetylglucosaminyltransferase activity of the G6 polypeptide was measured according to known methods [FEBS, 462, 289 (1999), J. Biol. Chem., 269, 14730-14737 (1994), J. Biol. Chem., 267, 23507 (1992), J. Biol. Chem., 267, 2994 (1992)]. Specifically, the reaction was carried out at 37° C. for 16 hours in 20 μl of a reaction solution [150 mmol/l sodium cacodylate (pH 7.2), 10 mmol/l UDP-GlcNAc (manufactured by SIGMA), 480 μmol/l UDP—[^14C]GlcNAc (manufactured by Amersham), 0.4% Triton CF-54, 10 mmol/l MnCl2, […] glycolipid, purified enzyme (G6sec2)]. As the purified enzyme (G6sec2), 10 μl of the enzyme obtained in the above (2) was used. As glycolipids, lactosylceramide, paragloboside, galactosylceramide (Type I) and galactosylceramide (Type II) were used. Paragloboside was obtained from Yasunori Kushi at Tokyo Medical and Dental University. Other glycolipids were purchased from SIGMA. After completion of the reaction, 200 μl of 0.1 mol/l KCl was added and lightly centrifuged to obtain the supernatant. The supernatant was passed through Sep-Pak plus C18 Cartridge (manufactured by Waters) which had been washed once with 10 ml of methanol and equilibrated by washing twice with 10 ml of 0.1 mol/l KCl to adsorb the glycolipid in the supernatant onto the cartridge. After washing the cartridge twice with 10 ml of pure water for HPLC, the adsorbed glycolipid was eluted with 5 ml of methanol. After concentrating the eluate to about 10 μl using a vacuum dryer, the concentrated solution was plotted on a TLC plate (HPTLC plate Silica gel 60: manufactured by MERCK) and developed using a developing solvent comprising a composition of chloroform:methanol:water (containing 0.2% CaCl2)=65:35:8. After the development was carried out to a position 5 mm from the upper end of the TLC plate, the plate was dried and then the radioactivity incorporated into the glycolipid was measured using Bio Image Analyzer BAS 2000 (manufactured by Fuji Photo Film).

[4] = target: T2, G6sec2; assay: β1,3-N-acetylglucosaminyltransferase activity using pyridylaminated oligosaccharides as substrates; conditions: pyridylaminated oligosaccharides 50 μmol/l, 37° C., 14.5 hours, LNnT defined as 100%
Experimental: After carrying out the reaction at 37° C. for 14.5 hours in 30 μl of an assay solution [150 mmol/l sodium cacodylate (pH 7.2), 50 mmol/l UDP-GlcNAc (manufactured by SIGMA), 0.4% Triton CF-54, 10 mmol/l MnCl2, 50 μmol/l pyridylaminated sugar chain substrate, a purified enzyme solution (G6sec2)], the product was detected by HPLC. The purified enzyme (G6sec2) was obtained according to the method shown in Example 8(6). The purified enzyme (280 μl) was prepared from 30 ml of a culture supernatant of Sf21 infected with the recombinant virus derived from pVL1393-F2G6sec2, and the assay was carried out using 5 μl thereof. As substrates, LnNT, lacto-N-tetraose (Galβ1-3GlcNAcβ1-3Galβ1-4Glc (hereinafter referred to as “LNT”), lacto-N-fucopentaose II (Galβ1-3(Fucα1-4)GlcNAcβ1-3Galβ1-4Glc; hereinafter referred to as “LNFP-II”), lacto-N-fucopentaose III (Galβ1-4(Fucα1-3)GlcNAcβ1-3Galβ1-4Glc; hereinafter referred to as “LNFP-III”), lacto-N-fucopentaose V (Galβ1-3GlcNAcβ1-3Galβ1-4(Fucα1-3)Glc; hereinafter referred to as “LNFP-V”), and lacto-N-difucohexaose II (Galβ1-3(Fucα1-4)GlcNAcβ1-3Galβ1-4(Fucα1-3)Glc; hereinafter referred to as “LNDFH-II”) (all manufactured by Oxford Glycosystems) were fluorescently-labeled with aminopyridine and used. The substrates were fluorescently-labeled according to a conventional method [Agric. Biol. Chem., 54, 2169 (1990)].
After carrying out the reaction on each substrate using an assay solution containing UDP-GlcNAc (saccharide donor) and an assay solution containing no donor and subsequently analyzing by HPLC, peaks appeared only in the assay solution containing UDP-GlcNAc was defined as products.
The assay solution after completion of the reaction was treated at 100° C. for 5 minutes and then centrifuged at 10,000×g for 5 minutes to obtain a supernatant, and a part thereof (5 μl) was subjected to HPLC.
The HPLC was carried out using TSK-gel ODS-80Ts Column (4.6×300 mm; manufactured by TOSOH) and 0.02 mol/l ammonium acetate buffer (pH 4.0) as the eluant at an elution temperature of 50° C. and a flow rate of 0.5 ml/min.
Detection and determination of products were carried out using a fluorescence spectrophotometer FP-920 (manufactured by JASCO Corporation) (excitation wavelength: 320 nm, radiation wavelength: 400 nm).

Compound	Relative activity (%) Test 1 G6sec1 [1] [%]	Relative activity (%) Test 1 G6sec2 [2] [%]	Relative activity (%) Test 2 G6sec2 [2] [%]	Relative activity (%) [4] [%]	also measured
Galβ1-4GlcNAcβ1-3Galβ1-4GlcNAcβ1-3Galβ1-4GlcNAcβ1-3Galβ1-4GlcNAc [4LN]	13.2	21.5	10.0	–	–
galactosylceramide (Type I)	–	–	–	–	β1,3-N-acetylglucosaminyltransferase activity for the glycolipid [3]: did not show activity
CC(=O)N[C@H]1[C@H](O[C@H]2[C@@H](O)[C@@H](CO)O[C@@H](O[C@@H]([C@H](O)[C@@H](O)C=O)[C@H](O)CO)[C@@H]2O)O[C@H](CO)[C@@H](O[C@@H]2O[C@@H](C)[C@@H](O)[C@@H](O)[C@@H]2O)[C@@H]1O[C@@H]1O[C@H](CO)[C@H](O)[C@H](O)[C@H]1O [LNFP-II, lacto-N-fucopentaose II]	–	–	–	<0.05	–
CC(=O)N[C@H]1[C@H](O[C@H]2[C@@H](O)[C@@H](CO)O[C@@H](O[C@H]3[C@H](O)[C@@H](NC(C)=O)[C@H](O[C@H]4[C@@H](O)[C@@H](CO)O[C@@H](O[C@H]5[C@H](O)[C@@H](NC(C)=O)C(O)O[C@@H]5CO)[C@@H]4O)O[C@@H]3CO)[C@@H]2O)O[C@H](CO)[C@@H](O[C@@H]2O[C@H](CO)[C@H](O)[C@H](O)[C@H]2O)[C@@H]1O (stereo partly shown) [3LN, Galβ1-4GlcNAcβ1-3Galβ1-4GlcNAcβ1-3Galβ1-4GlcNAc]	92.9	95.8	79.2	–	–
Galβ1-4(SO3-6)GlcNAcβ1-3Galβ1-4(SO3-6)GlcNAc [L2L2]	–	–	5.9	–	–
Galβ1-4GlcNAcβ1-3Galβ1-4GlcNAcβ-3Galβ1-4GlcNAcβ1-3Galβ1-4GlcNAcβ1-3Galβ1-4GlcNAc [5LN]	9.3	11.5	12.3	–	–
CC(=O)N[C@H]1[C@H](O[C@H]2[C@@H](O)[C@@H](CO)O[C@@H](O[C@H]3[C@H](O)[C@@H](O)C(O)O[C@@H]3CO)[C@@H]2O)O[C@H](CO)[C@@H](O)[C@@H]1O[C@@H]1O[C@H](CO)[C@H](O)[C@H](O)[C@H]1O (stereo partly shown) [LNT, lacto-N-tetraose]	–	–	–	5.5	–
CC(=O)N[C@H]1[C@H](O[C@H]2[C@@H](O)[C@@H](CO)O[C@@H](O[C@@H]([C@H](O[C@@H]3O[C@@H](C)[C@@H](O)[C@@H](O)[C@@H]3O)[C@@H](O)C=O)[C@H](O)CO)[C@@H]2O)O[C@H](CO)[C@@H](O[C@@H]2O[C@@H](C)[C@@H](O)[C@@H](O)[C@@H]2O)[C@@H]1O[C@@H]1O[C@H](CO)[C@H](O)[C@H](O)[C@H]1O [LNDFH-II, lacto-N-difucohexaose II]	–	–	–	<0.05	–
lacto-N-fucopentaose V [LNFP-V]	–	–	–	4.9	–
lacto-N-fucopentaose III [LNFP-III]	–	–	–	4.9	–
